This is an account of results in patent publication US20140341812A1, “BETA-AMYLOID PET IMAGING AGENTS” (The United States of America, as represented by the …, priority 2006, published 2014).

The term Ki denotes a measure of affinity in units of concentration, obtained from inhibition or displacement. Lower therefore signals higher affinity. For orientation: melting point means the temperature, or range, at which the solid turns liquid.

Molecules are shown by their SMILES.

For the first series, the target named is amyloid (Homo sapiens, UniProt P05067).
amyloid, sequence (P05067 672-713 limits assumed): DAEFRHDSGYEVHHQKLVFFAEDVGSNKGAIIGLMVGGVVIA
amyloid, sequence (P05067 672-711 limits assumed): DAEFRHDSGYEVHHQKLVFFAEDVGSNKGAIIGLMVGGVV
Assay: not given
The conditions noted are these: PET, patients with AD vs healthy people; cited from earlier work.
Take `CNc1ccc(-c2nc3ccc(O)cc3s2)cc1` [carbon-11-labelled-PIB, 6-hydroxy-2-(4′-methylaminophenyl)benzothiazole]: the “binding in the brains of patients with AD compared with healthy people” value was “more binding in the brains of patients with AD than in those of healthy people”.
As for `CC(=C(C#N)C#N)c1ccc2cc(N(C)CC[18F])ccc2c1` [fluorine-18-labelled-FDDNP, 2-(1-{6-[(2-[^18F]fluoroethyl)(methyl)amino]-2-naphthyl}ethylidene)malononitrile], the “binding in the brains of patients with AD compared with healthy people” value is listed as “more binding in the brains of patients with AD than in those of healthy people”.

Test system in another series: not given
Assay: not given
To be noted: after intravenous injection into rodent or monkey; reported in Cai et al., J. Med. Chem. 2004; cited from earlier work.
In the case of `CN(CCF)c1ccc(-c2cn3cc(I)ccc3n2)cc1` [[^18F]FEM-IMPY, N-(2-fluoroethyl)-4-(6-iodo-H-imidazo[1,2-A]pyridin-2-yl)-N-methylbenzeneamine], the “SUV (standardized uptake value) in brain” value was “about 160 % I.D.kg/g”.
For `CN(CCC[18F])c1ccc(-c2cn3cc(I)ccc3n2)cc1` [[^18F]FPM-IMPY], the “SUV (standardized uptake value) in brain” value was “about 160 % I.D.kg/g”.

A further series deals with T1, beta-amyloid plaques in AD brain tissue (Homo sapiens, UniProt P05067).
T1 construct: gauged from the concentration of Aβ1-40 and Aβ1-42 monomers; from tissue; host or cells: postmortem human AD brain grey matter; plaques isolated by SDS/sucrose centrifugation and collagenase/DNase digestion
T1 sequence (P05067 672-713 limits assumed): as the sequence (P05067 672-713 limits assumed) above
T1 sequence (P05067 672-711 limits assumed): as the sequence (P05067 672-711 limits assumed) above
As to the kind of experiment: In vitro binding assay: competitive displacement of [3H]6-OH-BTA-1 from isolated human AD amyloid plaques. To be noted: [3H]6-OH-BTA-1 as reference radioligand; isolated human AD amyloid plaques; Table 4. The procedure: Isolation of human AD amyloid. Postmortem brain […] were obtained from a confirmed AD patient. Pre- and postmortem consent was obtained from next of kin, and brains were removed at autopsy, sectioned and frozen at −70° C. Bags of brain tissue were removed from the freezer to a −20° C. freezer one day before, and then placed on ice 3 h before the experiment. While working on ice, the brain tissue was cut into small sections, and meningies from outer layer of cortex and from fissures between the lobes of the gray matter was removed. After removing the white matter, the grey matter were chopped into small pieces and placed into plastic bags. The tissue was stored in −70° C. freezer for further use.
In a typical isolation, 60 g of brain tissue were used. Initially, an equal volume of 1% SDS was added to homogenize. More 1% SDS was added later until 200 mL. The mixture was vortexed, distributed evenly among 10 Beckman ultracentrifuge tubes, and centrifuged by a Coulter type 55.2 Ti ultracentrifuge rotor using RPM: 40,000; G force; 180,000; temp: 4° C.; time: 30 min. The collected bottom pellets were further homogenized and centrifuged twice more as described above using 50 mL and 20 mL of 1% SDS each, and finally in 20 mL 1.2 M sucrose. The supernatant along the top pellet was discarded. The pellets at the bottom were homogenized and centrifuged in 20 mL 1.9 M sucrose. The top pellets were collected using a cell scrapper, and the bottom pellets were discarded. The collected top pellets were homogenized and centrifuged using 20 mL deionized water. The bottom pellets were further homogenized and centrifuged using 1.3 M sucrose solution into one centrifuge tube. The bottom pellets were homogenized and centrifuged using 20 mL deionized water. The collected pellets were homogenized in 30 mL of 50 mM Tris-HCl, pH 8.0, 2 mM CaCl2. Collagenase CLS3 (120 mg) and DNAase I (10-15 mg) were added. The mixture was vortexed and incubated for 24-56 hrs at 37° C. in a water bath with shaking. After incubation, the suspension was filtered through 41 μm Milllpore filter paper. The collected filtrate was centrifuged and the bottom pellets were homogenized and centrifuged one more time using the Tris-HCl solution. The supernatant was discarded, and the pellets were homogenized and centrifuged using 10 mL 1.9 M sucrose. The top pellet and the 1.9M sucrose layer were transferred to a new tube (this is to remove heavy particles such as metals and salts). Deionized water (40 mL) was added. After homogenization and centrifugation, the collected pellets were put into 500 μL of deionized water to form a homogeneous suspension. It was stored in a refrigerator or freezer for further use.
The amyloid suspension prepared above was diluted by a factor of 40,000 to 50,000 in PBS, and 800 μL suspension was used in each tube. […] Cold 6-OH-BTA-1 or other displacer was dissolved in ethanol to result in a stock solution of 1×10^−3 M, which was further diluted using PBS or ethanol to result in solutions with concentrations ranging from 1×10^−5 to 10^−10 M, and 100 μL was used in each tube. After assembly, the tubes were vortexed, and incubated for 3 hrs at room temperature. After separation using a cell harvester, the filter paper (GF/B filter paper pretreated with 0.5% polyimine solution) was washed with 10% ethanol in PBS (3×3 mL). The filters were placed into 20 mL glass vials and 10 mL scintillation fluid each was added. After overnight incubation, the samples were counted. The data were analyzed using GraphPad Prism 4 or KaleidaGraph 3.6.
Isolated plaques were used in developing an in vitro binding assay. Tritiated-6-OH-BTA-1 was selected as the reference radioligand based on its use in human PET imaging and high affinity.^28 Displacement curves were created using non-radioactive 6-OH-BTA-1 and other novel ligands.
`CCSc1ccc2nc(-c3ccc(N(C)C)cc3)cn2c1` [Ligand T7, 4-(6-(ethylthio)-H-imidazo[1,2-a]pyridin-2-yl)-N,N-dimethylbenzenamine] registered an inhibition constant Ki of 0.0083 ± 0.0005 µM.
Turning to `COc1ccc(CSc2ccc3nc(-c4ccc(N(C)C)cc4)cn3c2)cc1` [Ligand T5, 4-(6-(4-methoxybenzylthio)-H-imidazo[1,2-a]pyridin-2-yl)-N,N-dimethylbenzenamine], the affinity corresponds to a Ki of 0.0083 ± 0.0018 µM.
Still for that read-out and setting: the result for `COc1ccc2nc(-c3ccc(N(C)C)cc3)cn2c1` [Ligand L9, 4-(6-methoxy-H-imidazo[1,2-a]pyridin-2-yl)-N,N-dlmethylbenzenamine] reads 0.0385 ± 0.005 µM.
Consider `CN(C)c1ccc(-c2cn3cc(C#N)ccc3n2)cc1` [Ligand L8, 2-(4-(dimethylamino)phenyl)-H-imidazo[1,2-a]pyridine-6-carbonitrile], for which the affinity corresponds to a Ki of 0.0082 ± 0.001 µM.
Same read-out and setting: the result for `CN(C)c1ccc(-c2cc3c(I)cc(Br)cn3c2)cc1` [Ligand L13, 4-(6-bromo-8-iodoindolizin-2-yl)-N,N-dimethylbenzenamine] reads 0.183 ± 0.061 µM; that for `CNc1ccc(-c2cn3cc(Br)ccc3n2)cc1Br` [Ligand L18, 2-bromo-4-(6-bromo-H-imidazo[1,2-a]pyridin-2-yl)-N-methylbenzenamine], 0.0074 ± 0.0006 µM.
The same measure, in the same setting: the result for `CN(C)c1ccc(-c2cn3cc(O)ccc3n2)cc1` [Ligand L12, 2-(4-(dimethylamino)phenyl)-H-imidazo[1,2-a]pyridin-6-ol] reads 0.177 ± 0.031 µM; that for `CN(C)c1ccc(-c2cn3cc(SCCO)ccc3n2)cc1` [Ligand T4, 2-(2-(4-(dimethylamino)phenyl)-H-imidazo[1,2-a]pyridin-6-ylthio)ethanol], 0.088 ± 0.006 µM.
On to `CSc1ccc2nc(-c3ccc(N(C)C)cc3)cn2c1` [Ligand T6, N,N-dimethyl-4-(6-(methylthio)-H-imidazo[1,2-a]pyridin-2-yl)benzenamine], for which the affinity, expressed as Ki, was 0.0079 ± 0.0006 µM. Against the preceding compound, the Ki is about 11-fold lower.
In turn, `CNc1ccc(-c2cn3cc(SCCO)ccc3n2)cc1` [Ligand T3, 2-(2-(4-(methylamino)phenyl)-H-imidazo[1,2-a]pyridin-6-ylthio)ethanol] showed a Ki of 0.645 ± 0.075 µM.
Compound `CN(C)c1ccc(-c2cn3cc(Cl)ccc3n2)cc1` [Ligand L5] came in with an inhibition constant Ki of 0.0242 ± 0.0056 µM.
Turning to `CN(C)c1ccc(-c2cn3cc(SCC(N)=O)ccc3n2)cc1` [Ligand T2, 2-(2-(4-(dimethylamino)phenyl)-H-imidazo[1,2-a]pyridin-6-ylthio)acetamide], the affinity corresponds to a Ki of 0.391 ± 0.076 µM.
As for `CN(C)c1ccc(-c2cc3c(C#N)cc(Br)cn3c2)cc1` [Ligand L14, 6-bromo-2-(4-(dimethylamino)phenyl)indolizine-8-carbonitrile], the Ki was more than 0.18 µM.
With `CN(C)c1ccc(-c2cn3cc([N+](=O)[O-])ccc3n2)cc1` [Ligand L7, N,N-dimethyl-4-(6-nitro-H-imidazo[1,2-a]pyridin-2-yl)benzenamine], the affinity, expressed as Ki, was 0.0076 ± 0.0007 µM.
In turn, `CN(CCCF)c1ccc(-c2cn3cc(I)ccc3n2)cc1` [Ligand L3, reference compound] gave a Ki of 0.041 ± 0.005 µM. This Ki is about 5.4-fold higher than that of the compound before.
For `CNc1ccc(-c2cn3cc(SCC(N)=O)ccc3n2)cc1` [Ligand T1, 2-(2-(4(methylamino)pheny)-H-imidazo[1,2-a]pyridin-6-ylthio)acetamide], the inhibition constant Ki was 1.84 ± 0.497 µM.
Compound `CN(CCF)c1ccc(-c2cn3cc(I)ccc3n2)cc1` [Ligand L2, N-(2-fluoroethyl)-4-(6-iodo-H-imidazo[1,2-A]pyridin-2-yl)-N-methylbenzeneamine, reference compound] showed a Ki of 0.031 ± 0.005 µM. This Ki lies about 59-fold lower than the previous one.
The compound `CN(C)c1ccc(-c2cn3cc(Br)ccc3n2)cc1` [Ligand L4] displayed a Ki of 0.0059 ± 0.0004 µM.
Compound `Cc1cc(-c2cn3cc(Br)ccc3n2)ccc1N` [Ligand L20, 4-(6-bromo-H-imidazo[1,2-a]pyridin-2-yl)-2-methylbenzenamine] displayed a Ki of 0.658 ± 0.047 µM.
`CN(C)c1ccc(-c2cn3cc(F)ccc3n2)cc1` [Ligand L6, 4-(6-fluoro-H-imidazo[1,2-a]pyridin-2-yl)-N,N-dimethylbenzenamine] showed a Ki of 0.013 ± 0.0016 µM.

Still in this series, the particulars now being: [3H]6-OH-BTA-1 as reference radioligand; isolated human AD amyloid plaques; Table 5.
For the compound `CN(C)c1ccc(-c2cn3cc(Cl)ncc3n2)cc1` [Ligand L21, 4-(6-chloroimidazo[1,2-a]pyrazin-2-yl)-N,N-dimethylbenzenamine], the Ki was 0.088 ± 0.022 µM.
`CN(C)c1ccc(-c2cn3cc(Cl)cnc3n2)cc1` [Ligand L22, 4-(6-chloroimidazo[1,2-a]pyrimidin-2-yl)-N,N-dimethylbenzenamine] gave a Ki of 0.147 ± 0.02 µM.
Compound `CN(C)c1ccc(-c2nc3ccc(SCCO)cc3s2)cc1` [Ligand P1] registered an inhibition constant (Ki) of 0.0057 ± 0.0007 µM.

The same series, now with this note: discussion of the Table 4 Ki values.
Take `CN(C)c1ccc(-c2cn3cc(O)ccc3n2)cc1` [Ligand L12, 2-(4-(dimethylamino)phenyl)-H-imidazo[1,2-a]pyridin-6-ol]: the “binding affinity (in words)” value is listed as “abolishes all binding affinity”.
Turning to `CN(C)c1ccc(-c2cc3c(C#N)cc(Br)cn3c2)cc1` [Ligand L14, 6-bromo-2-(4-(dimethylamino)phenyl)indolizine-8-carbonitrile], the “binding affinity (in words)” value is on record as “completely removes the binding affinity”.

The same series, now with this note: displacement of [3H]6-OH-BTA-1 from isolated amyloid plaques.
For the compound `CNc1ccc(-c2nc3ccc(O)cc3s2)cc1` [PIB, 6-hydroxy-2-(4′-methylaminophenyl)benzothiazole, reference compound], the “displacement of reference radioligand” value is more than 95%.

Test system in a further series: not given
Assay: not given
Conditions: not given
`CCSc1ccc2nc(-c3ccc(N(C)C)cc3)cn2c1` [Ligand T7, 4-(6-(ethylthio)-H-imidazo[1,2-a]pyridin-2-yl)-N,N-dimethylbenzenamine] gave a melting point of 168 to 171 °C.
With `CN(C)c1ccc(-c2cn3cc(C#N)ccc3n2)cc1` [Ligand L8, 2-(4-(dimethylamino)phenyl)-H-imidazo[1,2-a]pyridine-6-carbonitrile], the melting point fell in the range of 269 to 271 °C.
On the same count and under the same terms, the same measure for `CN(C)c1ccc(-c2cn3cc(Cl)ccc3n2)cc1` [Ligand L5]: 234 to 236 °C; for `CC(=O)N(C)c1ccc(-c2cc3ccc(Br)cn3c2)cc1C` [Ligand L16, N-(4-(6-bromoindolizin-2-yl)-2-methylphenyl)-N-methylacetamide]: 197 to 198 °C.
